{
  "source": "paper PMC4582009",
  "about": "(Bioorganic & medicinal chemistry, 2015)",
  "key": {"[1]": {"biological_target": "cloned human κ opioid receptor (Homo sapiens, UniProt P41145)", "sequence (P41145 whole entry)": "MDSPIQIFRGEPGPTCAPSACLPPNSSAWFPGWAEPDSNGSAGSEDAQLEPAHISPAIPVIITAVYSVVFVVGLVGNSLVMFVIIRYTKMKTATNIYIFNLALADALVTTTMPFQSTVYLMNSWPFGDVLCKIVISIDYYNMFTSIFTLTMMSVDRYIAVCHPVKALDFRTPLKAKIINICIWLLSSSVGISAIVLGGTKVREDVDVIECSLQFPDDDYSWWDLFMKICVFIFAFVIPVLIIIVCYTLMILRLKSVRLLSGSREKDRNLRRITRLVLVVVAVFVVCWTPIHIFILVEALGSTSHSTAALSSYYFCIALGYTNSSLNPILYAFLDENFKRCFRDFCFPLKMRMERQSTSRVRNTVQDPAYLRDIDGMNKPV", "assay": "biochemical", "format": "biochemical", "conditions": "for times less potent than JDTic as a κ opioid receptor antagonist: ratio of κ Ke values vs JDTic"}, "[2]": {"biological_target": "cloned human δ opioid receptor (Homo sapiens, UniProt P41143)", "sequence (P41143 whole entry)": "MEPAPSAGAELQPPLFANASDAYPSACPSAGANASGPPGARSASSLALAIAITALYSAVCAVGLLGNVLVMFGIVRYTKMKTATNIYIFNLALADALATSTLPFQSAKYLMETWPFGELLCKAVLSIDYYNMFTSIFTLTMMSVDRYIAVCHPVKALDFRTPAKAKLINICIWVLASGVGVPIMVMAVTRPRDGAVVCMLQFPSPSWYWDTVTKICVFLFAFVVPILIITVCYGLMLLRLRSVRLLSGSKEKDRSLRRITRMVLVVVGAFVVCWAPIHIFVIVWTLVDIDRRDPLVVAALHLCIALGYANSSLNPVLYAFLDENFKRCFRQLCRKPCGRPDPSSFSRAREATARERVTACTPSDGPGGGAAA", "assay": "biochemical"}, "[3]": {"biological_target": "cloned human μ opioid receptor (Homo sapiens, UniProt P35372)", "sequence (P35372 whole entry)": "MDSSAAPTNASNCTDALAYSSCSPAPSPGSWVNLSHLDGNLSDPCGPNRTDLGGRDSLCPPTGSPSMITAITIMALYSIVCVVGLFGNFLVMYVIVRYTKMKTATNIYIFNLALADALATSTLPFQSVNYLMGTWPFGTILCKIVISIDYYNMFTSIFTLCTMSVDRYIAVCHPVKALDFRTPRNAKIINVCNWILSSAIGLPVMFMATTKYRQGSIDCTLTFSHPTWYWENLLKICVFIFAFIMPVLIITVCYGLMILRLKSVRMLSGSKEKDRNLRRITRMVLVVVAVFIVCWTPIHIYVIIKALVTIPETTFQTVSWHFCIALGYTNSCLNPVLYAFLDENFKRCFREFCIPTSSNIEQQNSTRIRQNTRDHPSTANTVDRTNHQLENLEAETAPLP", "format": "biochemical", "conditions": "ratio of μ Ke values vs 3b"}},
  "data": [
    {"smiles": "CC(C)[C@@H](CN1CCC(C)(c2cccc(F)c2)CC1)NC(=O)[C@H]1Cc2ccc(O)cc2CN1", "note": "[Compound 4b, (3R)-N-[(1S)-1-{[4-(3-fluorophenyl)-4-methylpiperidin-1-yl]methyl}-2-methylpropyl]-7-hydroxy-1,2,3,4-tetrahydroisoquinoline-3-carboxamide]", "values": [
      {"measurement": "functional profile in the [35S]GTPγS test", "setting": "opioid receptors", "result": "pure opioid antagonist"},
      {"measurement": "times less potent than JDTic as a κ opioid receptor antagonist", "setting": "[1]", "result": 9, "unit": "fold"}
    ]},
    {"smiles": "CC(C)[C@@H](CN1CCC(c2ccccc2)CC1)NC(=O)[C@H]1Cc2ccc(O)cc2CN1", "note": "[Compound 4e, (3R)-7-Hydroxy-N-{(1S)-2-methyl-1-[(4-phenylpiperidin-1-yl]methyl]propyl}-1,2,3,4-tetrahydroisoquinoline-3-carboxamide]", "values": [
      {"measurement": "Kb", "setting": "[2]", "result": "281 ± 44", "unit": "nM"},
      {"measurement": "Kb", "setting": "[1]", "result": "0.051 ± 0.01", "unit": "nM"},
      {"measurement": "times less potent than 3a as a κ antagonist", "setting": "[1]; ratio of κ Ke values vs 3a", "result": 2, "unit": "fold"},
      {"measurement": "times less potent than JDTic as a κ opioid receptor antagonist", "setting": "[1]", "result": 2.6, "unit": "fold"}
    ]},
    {"smiles": "CC(C)[C@@H](CN1CCC(C)(c2cccc(O)c2)CC1)NC(=O)[C@H]1Cc2ccc(O)cc2CN1", "note": "[Compound 4a, (3R)-7-Hydoxy-N-[(1S)-1-{[4-(3-hydroxyphenyl)-4-methylpiperidin-1-yl]methyl}-2-methylpropyl]-1,2,3,4-tetrahydroisoquinoline-3-carboxamide]", "values": [
      {"measurement": "Kb", "setting": "[2]", "result": "927 ± 350", "unit": "nM"},
      {"measurement": "times less potent than JDTic as a κ opioid receptor antagonist", "setting": "[1]", "result": 35, "unit": "fold"}
    ]},
    {"smiles": "CC(C)[C@@H](CN1CCC(c2cccc(F)c2)CC1)NC(=O)[C@H]1Cc2ccc(O)cc2CN1", "note": "[Compound 4f, (3R)-N-[(1S)-1-{[4-(3-Fluorophenyl)piperidin-1-yl]methyl}-2-methylpropyl]-7-hydroxy-1,2,3,4-tetrahydroisoquinoline-3-carboxamide]", "values": [
      {"measurement": "times more potent as a μ antagonist than 3b", "setting": "[3]", "result": 4, "unit": "fold"}
    ]},
    {"smiles": "CC[C@H](C)[C@@H](CN1CCC(C)(c2cccc(F)c2)CC1)NC(=O)[C@H]1Cc2ccc(O)cc2CN1", "note": "[Compound 4c, (3R)-N-[(1S,2S)-1-{[4-(3-Fluorophenyl)-4-methylpiperidin-1-yl]methyl}-2-methylbutyl]-7-hydroxy-1,2,3,4-tetrahydroisoquinoline-3-carboxamide]", "values": [
      {"measurement": "Kb", "setting": "[2]", "result": "903 ± 200", "unit": "nM"},
      {"measurement": "δ/κ", "setting": "[1]", "result": "27,363"},
      {"measurement": "μ/κ", "setting": "[1]", "result": 342}
    ]}
  ]
}
